Data from publication PMC7729195, “Pharmacodynamic Functions of Synthetic Derivatives for Treatment of Methicillin-Resistant Staphylococcus aureus (MRSA) and Mycobacterium tuberculosis” (Frontiers in Microbiology, 2020).
Values after ≈ are worked out from the molar mass of the structure shown.

What was measured:
A549 = assay type: cell-based; settings: human, 7 days
Experimental: (§1) Human alveolar epithelial cells (A549), ([Giard et al., 1973]), Madin-Darby canine kidney epithelial cells (MDCK), ([Gaush et al., 1966]), human leukemia cells (THP-1) ([Tsuchiya et al., 1980]), human hepatocellular carcinoma cells (Hep-G2), ([Aden et al., 1979]), and human embryonic kidney cells 293 (HEK293) ([Graham et al., 1977]) were grown and differentiated in complete RPMI (Roswell Park Memorial Institute Medium) and DMEM (Dulbecco’s Modified Eagle’s medium) tissue culture media (RPMIc and DMEMc). To determine toxicity of the AIMS extract library, 2 × 10^5 of each cell type were added to a 96-well plate and left for 48 h at 37°C to adhere. Extract samples at a final concentration of 0.5 mg mL^–1 were added to the wells, then incubated for 7 days in a humidified 5% CO2 incubator at 37°C. Then resazurin (10 μL of 0.05% w/v) was added, and after 4 h, fluorescence measured as described previously. Cell viability was calculated as percentage fluorescence relative to untreated cells.

HepG2 = assay type: cell-based; settings: human, 7 days
Experimental: as §1

THP1 = assay type: cell-based; settings: human, 7 days
Experimental: as §1

HEK 293 = assay type: cell-based; settings: human, 7 days
Experimental: as §1

[1] = tested on: A549, THP-1, HepG2 and HEK 293 cell lines; assay type: cell-based, human
Experimental: as §1

MRSA [2] = assay: Time-kill study against MRSA; assay type: cell-based, Staphylococcus aureus
MRSA [3] = assay: Minimum bactericidal concentration (MBC) for MRSA; assay type: cell-based, Staphylococcus aureus; set-up: unit not given here; settings: sub-culture on agar, 18 h
M. tuberculosis = assay: Time-kill study against M. tuberculosis; assay type: cell-based, Mycobacterium tuberculosis; settings: compound treatment, day 6
Experimental: Time-kill experiments were performed by culturing MRSA and M. tuberculosis in liquid medium in the presence of six synthesized sample concentrations in doubling dilutions ranging from 8 to 0.001 × MIC and 2 × MIC for both bacteria, respectively. Growth curves were initially generated to confirm that bacteria would reach a stable early- to mid-log phase after 2 and 48 h of pre-incubation in antimicrobial-free both medium, respectively. Samples were taken in different incubation times after drug exposure at 0, 2, 4, 6, 8, and 24 h for MRSA and 24, 48 h, and 4 and 6 days for M. tuberculosis and then plated onto agar plates for CFU determination. The experiments were carried out in duplicate and repeated three times.

MRSA [4] = assay: Checkerboard assay with vancomycin against MRSA; assay type: cell-based, Staphylococcus aureus
E. coli EC958 = assay: Bacterial inhibition assay (resazurin), MIC against E. coli; assay type: cell-based, Escherichia coli; settings: Escherichia coli, EC958; synthetic compounds, 18 h incubation
TB. H37Rv = assay: Minimum bactericidal concentration (MBC) for TB; assay type: cell-based, Mycobacterium tuberculosis; set-up: unit not given here; settings: sub-culture on agar, 7 days
MRSA [5] = assay: Bacterial inhibition assay (resazurin), MIC against MRSA; assay type: cell-based, Staphylococcus aureus; set-up: MIC for MRSA: unit not given here
resistant strains = assay: MIC against resistant strains; assay type: cell-based; settings: read-out: MIC against resistant strains
M. tuberculosis H37Rv [6] = assay: Bacterial inhibition assay (resazurin), MIC against M. tuberculosis; assay type: cell-based, Mycobacterium tuberculosis; set-up: MIC for TB. H37Rv: unit not given here
P. aeruginosa PAO1 = assay: Bacterial inhibition assay (resazurin), MIC against P. aeruginosa; assay type: cell-based, Pseudomonas aeruginosa; settings: Pseudomonas aeruginosa, PAO1; synthetic compounds, 18 h incubation
M. tuberculosis H37Rv [7] = assay: Checkerboard assay with rifampicin against M. tuberculosis; assay type: cell-based, Mycobacterium tuberculosis
[8] = M. tuberculosis, compound with rifampicin

CCCCCCCCN(CCCCCCCC)c1cccc(C)c1 [Compound 1a, N,N-Dioctyl-3-Methylaniline]
Minimum toxicity concentration of drug (MTC) A549 (A549): >100 ± 4.1 µM
Minimum toxicity concentration of drug (MTC) HepG2 (HepG2): >100 ± 3.0 µM
Minimum toxicity concentration of drug (MTC) THP1 (THP1): 50 ± 2.0 µM
Minimum toxicity concentration of drug (MTC) HEK 293 (HEK 293): 50 ± 0.9 µM
Toxicity against THP1 and/or HEK 293 cells [1]: some toxicity
MTC on all cell lines tested ([1]; human, 7 days): 50 to 100 µM
Bactericidal character (MRSA [2]; conclusion of time-kill studies): strongly bactericidal and concentration dependent
Effect of sub-inhibitory combination with vancomycin on MRSA growth (MRSA [2]; sub-inhibitory combinations with vancomycin): substantially inhibited growth of MRSA
MBC for MRSA (MRSA [3]): 25
Effect on bacterial viability (M. tuberculosis): significant reduction in bacterial viability
FIC (MRSA [4]; MRSA, compound with vancomycin): 0.45
MIC50 (MRSA [4]; Staphylococcus aureus, MRSA, compound alone): 12.5 µM
Activity against MRSA in combination with vancomycin (MRSA [4]; vancomycin plus compound): bactericidal activity
MIC (E. coli EC958): 12.5 ± 5 µM (≈ 4.14 µg/mL)
MBC for TB. H37Rv (TB. H37Rv): 25
MIC (MRSA [5]; Staphylococcus aureus, MRSA, synthetic compounds, 18 h incubation): 12.5 ± 1 µM (≈ 4.14 µg/mL)
MIC for MRSA (MRSA [5]; Table 6 summary): 12.5
MIC (resistant strains): 6.7 to 20 µM (≈ 2.22 to 6.63 µg/mL)
MIC (M. tuberculosis H37Rv [6]; Mycobacterium tuberculosis, H37RV, 168 h, synthetic compounds, 7 days incubation): 1.5 ± 3 µM (≈ 0.497 µg/mL)
MIC for TB. H37Rv (M. tuberculosis H37Rv [6]; Table 6 summary): 1.5
MIC (P. aeruginosa PAO1): 6.2 ± 9 µM (≈ 2.06 µg/mL)
Drug–drug interactions (M. tuberculosis H37Rv [7]; [8]): Indifference (0.25–4 indifferent or additive activity)
FIC (M. tuberculosis H37Rv [7]; [8]): 1.1
MIC50 (M. tuberculosis H37Rv [7]; Mycobacterium tuberculosis, H37RV, read-out: Compound alone MIC50 for M. tuberculosis): 1.5 µM
